Assay results reported in patent publication US20250339409A1, “USES OF PAN BET INHIBITORS” (VYNE THERAPEUTICS INC., priority 2021, published 2025).
Several values for one entry are separate records, joined by “and”; a condition that tells them apart may be missing. Identical values can stand only once.

Tested on: TRP-1
Assay: RHE vitiligo model: melanocyte localization after TRP-1 immunostaining
Assay type: cell-based, human
Settings: for Mean per RHE (%): RHE1-3
Protocol: TRP-1 (tyrosinase related protein-1) is a melanocyte specific protein and a member of the tyrosinase gene family which also includes tyrosinase. It is very often used as specific marker of melanocytes. To visualize and quantify the melanocytes within the epidermis, sections of epidermis (6 μm thick) prepared from epidermis embedded in paraffin are used for TRP-1 immunostaining.
After deparaffination and re-hydration, antigen unmasking is performed by heating in citrate ph6 buffer. Samples are then saturated with goat serum, in order to avoid unspecific labelling.
Samples are incubated overnight, at 4° C., with a primary antibody raised against human TRP-1 (Abcam; Ab235447). After washing, the samples are incubated (for 30 minutes, at room temperature) with a secondary antibody anti-rabbit coupled to Alexa Fluor 488 dye (Thermo Fisher Scientific; A-11008). Samples are then incubated with DAPI or 4′,6′-diamidino-2-phenylindole (Thermo Fisher Scientific, D1306), a fluorescent molecule able of binding to the adenine and thymine bases of DNA and slides are mounted with specific medium, before taking the images. For each tissue/sample, 1 slide section is used to make 3 images. Images are taken using a Nikon Eclipse (Ni-E) photomicroscope coupled to a numerical camera (DS-Ri2). Quantification of the protein is performed with NIS-Element AR software (Nikon). The detection thresholds are firstly determined, using the most marked slices, in order to avoid saturation of detection. For each image, a region of interest (ROI) is delimited manually (including only the basal layers of epidermis which are supposed to contain the melanocytes) and its surface was measured. The software then measures the marked area within the delimited area, in number of pixels. The mean intensity of the marked surface multiplied by the “marked surface” determines the staining for the given ROI. This value is then normalized for a given surface by dividing the staining value by the surface of the ROI.
Formulations containing four doses of BETi1 the BETi1 vehicle (placebo), were evaluated in RHE TNF-α/IFN-γ vitiligo model as described in Experimental section Method G and representative images of RHE after TRP-1 staining are shown in FIG. 7A and respective quantification with and without normalization are shown in Table 19 and Table 20 and FIGS. 7B and FIG. 7C respectively. The stimulation with the cytokine cocktail (TNF-α and IFN- ? ) in accordance with Part A and B, reduced the expression of TRP-1 and thus the abundance of melanocytes in the basal layers of the RHE, confirming the melanocytorhagy. In the model, stimulated treated with the vehicle induced a significant […] of TRP-1 abundance as compared to the stimulated untreated control. Without being bound by any theory the barrier effect provided by petrolatum in the vehicle, which increases skin hydration, has some effect on retention of melanocytes in the basal layer. […] A dose response could clearly be observed with the BETi1 formulation, with a tendency to the increase for the dose of 0.1% and with the two last concentrations being not significant. The effects of the ruxolitinib cream at 1% could not be assessed given that the sections have detached from the glass slides during the immunostaining process (probably without being bound by any theory may be due to the bad structure of the epidermis).

[1] = BETi1 0.001%, stimulated RHE, without normalization to ROI
[2] = BETi1 1%, stimulated RHE, with normalization to ROI
[3] = BETi1 1%, stimulated RHE, without normalization to ROI
[4] = BETi1 10.001% [sic], stimulated RHE, with normalization to ROI

For Cn1cc(-c2cccc(O)c2Oc2ccccc2)c2cc[nH]c2c1=O [BETi1], the “Mean per condition (%)” value [1] was 24%, the “Mean per RHE (%)” value [1] was 21.6% and 27.0% and 22.1% and the “Mean per condition (%)” value (BETi1 0.01%, stimulated RHE, with normalization to ROI) was 15%. The “Mean per condition (%)” value (BETi1 0.01%, stimulated RHE, without normalization to ROI) was 20%, the “Mean per condition (%)” value (BETi1 0.1%, stimulated RHE, with normalization to ROI) was 92% and the “Mean per condition (%)” value (BETi1 0.1%, stimulated RHE, without normalization to ROI) was 120%. The “Mean per condition (%)” value [2] was 149%, the “Mean per RHE (%)” value [2] was 169% and 120% and 158% and the “Mean per condition (%)” value [3] was 192%. For the same molecule, the “Mean per RHE (%)” value [3] was 220.8% and 151.1% and 203.4%, the “Mean per condition (%)” value [4] was 17% and the “Mean per RHE (%)” value [4] was 18% and 19% and 14%. The “TRP-1 in the basal layers” value (BETi1 formulation at 1%, stimulated RHE) was “TRP-1 is significantly increased in the basal layers”, the “TRP-1 % staining relative to stimulated control, Mean per RHE (%)” value (Stimulated + BETi1 0.001%) was 6% and 8% and the “TRP-1 % staining relative to stimulated control, Mean per condition (%)” value (Stimulated + BETi1 0.001%) was 7%. The “TRP-1 % staining relative to stimulated control, Mean per condition (%)” value (Stimulated + BETi1 0.01%) was 30%, the “TRP-1 % staining relative to stimulated control, Mean per condition (%)” value (Stimulated + BETi1 0.1%) was 227% and the “TRP-1 % staining relative to stimulated control, Mean per condition (%)” value (Stimulated + BETi1 1%) was 292%.
